Data as given in patent publication US9717243B2, “Piperidinecarboxylic acid derivatives as fungicides” (priority 2013, dated 2017).
Where two headings read alike, the source gives them in different places.

Legend:
[1] = LogP by HPLC on reversed phase columns (EEC directive 79/831 Annex V.A8); type: physicochemical
Experimental: Calibration was done with straight-chain alkan2-ones (with 3 to 16 carbon atoms) with known LogP values (measurement of LogP values using retention times with linear interpolation between successive alkanones). Lambda-max-values were determined using UV-spectra from 200 nm to 400 nm and the peak values of the chromatographic signals.

Phytophthora infestans = type: in vivo; conditions: 100 ppm of active ingredient; preventive, tomatoes; evaluated 3 days after inoculation; 0% = untreated control, 100% = no disease
Plasmopara viticola = assay: Plasmopara test (grapevines)/preventive; conditions: preventive, evaluated 6 days after inoculation, 0% = untreated control, 100% = no disease
Experimental: Plasmopara Test (Grapevines)/Preventive • Solvent: 24.5 parts by weight of acetone • 24.5 parts by weight of dimethylacetamide • Emulsifier: 1 part by weight of alkylaryl polyglycol ether
After the spray coating has dried on, the plants are inoculated with an aqueous spore suspension of Plasmopara viticola and then remain for 1 day in an incubation cabinet at approximately 20° C. and a relative atmospheric humidity of 100%. The plant is subsequently placed for 4 days in a greenhouse at approximately 21° C. and a relative atmospheric humidity of approximately 90%. The plants are then misted and placed for 1 day in an incubation cabinet.
The test is evaluated 6 days after the inoculation.

[2] = Table 1, compounds of formula (I), LC-UV, acidic range, 0.1% formic acid in water and acetonitrile as eluent

COC(=O)C1(c2nc(C3=NOC(c4ccccc4OS(C)(=O)=O)C3)cs2)CCN(C(=O)Nc2cc(C(F)F)ccc2C(F)F)CC1 (centres unmarked) [Example I-9]
Log P[a] [1]: 3.42
Efficacy % (Phytophthora infestans): 91%
Efficacy % (Plasmopara viticola; 100 ppm of active ingredient): 100%

COC(=O)C1(c2nc(C3=NOC(c4ccccc4OS(C)(=O)=O)C3)cs2)CCN(C(=O)Nc2cn(C(F)F)nc2C)CC1 (centres unmarked) [Example I-10]
Log P[a] [1]: 2.64
Efficacy % (Phytophthora infestans): 94%
Efficacy % (Plasmopara viticola; 100 ppm of active ingredient): 96%

C#CCOc1ccc(F)c(F)c1C1CC(c2csc(C3(C(=O)OC)CCN(C(=O)Cn4nc(C(F)F)cc4C)CC3)n2)=NO1 (centres unmarked) [Example I-66]
Log P[a] [1]: 3.33
Efficacy % (Plasmopara viticola; 1 ppm of active ingredient): 76%

C#CCOc1ccc(F)c(F)c1C1CC(c2csc(C3(C(=O)OC)CCN(C(=O)Cn4nc(C(F)F)cc4C(F)F)CC3)n2)=NO1 (centres unmarked) [Example I-3]
Log P[a] [1]: 3.61
Efficacy % (Plasmopara viticola; 1 ppm of active ingredient): 93%

O=C(Cn1nc(C(F)F)cc1C(F)F)N1CCC(C(=O)OC2CCOC2)(c2nc(C3=NOC(c4ccccc4)C3)cs2)CC1 (centres unmarked) [Example I-56]
Log P[a] [1]: 3.39

COC(=O)C1(C#N)CCN(C(=O)Cn2nc(C(F)(F)F)cc2C)CC1 [IV-7]
Log P[a] [1]: 2.32

C=CCOC(=O)C1(c2nc(C3=NOC(c4ccccc4)C3)cs2)CCN(C(=O)Cn2nc(C(F)F)cc2C(F)F)CC1 (centres unmarked) [Example I-44]
Log P[a] [1]: 3.85

COC(=O)C1(c2nc(C3=NOC(c4c(Cl)cccc4OS(C)(=O)=O)C3)cs2)CCN(C(=O)Cn2nc(C(F)(F)F)cc2C)CC1 (centres unmarked) [Example I-67]
Log P[a] [1]: 3.55

N#CC1(C(=O)O)CCN(C(=S)Nc2ccc(OC(F)(F)F)cc2)CC1 [IV-33]
Log P[a] [1]: 2.33

C#CCOc1ccc(F)c(F)c1C1CC(c2csc(C3(C(=O)OC)CCN(C(=O)Nc4cn(C)nc4C(F)F)CC3)n2)=NO1 (centres unmarked) [Example I-21]
Log P[a] [1]: 2.88

O=C(Cn1nc(C(F)F)cc1C(F)F)N1CCC(C(=O)OCc2ccccc2)(c2nc(C3=NOC(c4c(F)cccc4F)C3)cs2)CC1 (centres unmarked) [Example I-37]
Log P[a] [1]: 4.21

C#CCOc1ccc(F)c(F)c1C1CC(c2csc(C3(C(=O)OC)CCN(C(=O)Cn4nc(C(F)(F)F)cc4C)CC3)n2)=NO1 (centres unmarked) [Example I-73]
Log P[a] [1]: 3.71

C#CCOc1ccccc1C1CC(c2csc(C3(C(=O)OC)CCN(C(=O)Cn4nc(C(F)(F)F)cc4C)CC3)n2)=NO1 (centres unmarked) [Example I-72]
Log P[a] [1]: 3.71

COC(=O)C1(c2nc(C3=NOC(c4ccccc4-c4ccccc4)C3)cs2)CCN(C(=O)Cn2nc(C(F)F)cc2C)CC1 (centres unmarked) [Example I-61]
Log P[a] [1, 2]: 4.09

COC(=O)C1(c2nc(C3=NOC(c4ccccc4OS(C)(=O)=O)C3)cs2)CCN(C(=O)Nc2cc(C)ccc2C)CC1 (centres unmarked) [Example I-11]
Log P[a] [1]: 3.29
Efficacy % (Phytophthora infestans): 100%
Efficacy % (Plasmopara viticola; 100 ppm of active ingredient): 100%

CS(=O)(=O)Oc1ccccc1C1CC(c2csc(C3(C(=O)OC4CCOC4)CCN(C(=O)Cn4nc(C(F)F)cc4C(F)F)CC3)n2)=NO1 (centres unmarked) [Example I-57]
Log P[a] [1]: 3.21

COC(=O)C1(c2nc(C3=NOC(c4c(Cl)cccc4OS(C)(=O)=O)C3)cs2)CCN(C(=O)Nc2cn(C)nc2C(F)F)CC1 (centres unmarked) [Example I-14]
Log P[a] [1]: 2.73

CCOC(=O)C1(c2nc(C3=NOC(c4c(F)cccc4F)C3)cs2)CCN(C(=O)Cn2nc(C(F)F)cc2C(F)F)CC1 (centres unmarked) [Example I-24]
Log P[a] [1]: 3.73

CC(C)=CCN(C)C(=O)C1(C#N)CCN(C(=O)Nc2ccc(F)cc2)CC1 [IV-40]
Log P[a] [1]: 2.71

COC(=O)C1(C(N)=S)CCN(C(=O)Cn2nc(C)cc2C(F)F)CC1 [II-5]
Log P[a] [1]: 1.75

N#CC1(C(=O)O)CCN(C(=S)Nc2cccc(Cl)c2)CC1 [IV-32]
Log P[a] [1]: 2.01

C#CCOc1ccccc1C1CC(c2csc(C3(C(=O)OC)CCN(C(=O)Nc4cn(C(F)F)nc4C)CC3)n2)=NO1 (centres unmarked) [Example I-17]
Log P[a] [1]: 3.02

COC(=O)C1(c2nc(C3=NOC(c4ccccc4OS(C)(=O)=O)C3)cs2)CCN(C(=O)Cn2nc(C(F)F)cc2C(F)F)CC1 (centres unmarked) [Example I-7, methyl 1-{[3,5-bis(difluoromethyl)-1H-pyrazol-1-yl]acetyl}-4-[4-(5-{2-[(methylsulfonyl)oxy]phenyl}-4,5-dihydro-1,2-oxazol-3-yl)-1,3-thiazol-2-yl]piperidine-4-carboxylate]
chromatographic logP ([1]; Table 1, compounds of formula (I), LC-UV, acidic range, 0.1% formic acid in water and acetonitrile as eluent, read-out: Log P[a]): 3.27
Efficacy % (Phytophthora infestans): 95%
Efficacy % (Plasmopara viticola; 100 ppm of active ingredient): 100%

COC(=O)C1(c2nc(C3=NOC(c4ccccc4)C3)cs2)CCN(C(=O)Cn2nc(C(F)(F)F)cc2C)CC1 (centres unmarked) [Example I-70]
Log P[a] [1]: 3.55

N#CC1(C(=O)O)CCN(C(=O)Nc2ccc(Cl)c(C(F)(F)F)c2)CC1 [IV-30]
Log P[a] [1]: 2.42

COC(=O)C1(C(N)=S)CCN(C(=O)Nc2cc(C(F)(F)F)nn2C)CC1 [II-19]
Log P[a] [1]: 1.74

COC(=O)C1(c2nc(C3=NOC(c4c(Cl)cccc4OS(C)(=O)=O)C3)cs2)CCN(C(=O)Cn2nc(C(F)F)cc2C(F)F)CC1 (centres unmarked) [Example I-6]
Log P[a] [1, 2]: 3.44

C#CCOc1ccc(F)c(F)c1C1CC(c2csc(C3(C(=O)OCc4ccccc4)CCN(C(=O)Cn4nc(C(F)F)cc4C(F)F)CC3)n2)=NO1 (centres unmarked) [Example I-40]
Log P[a] [1]: 4.31

CSCCOC(=O)C1(c2nc(C3=NOC(c4ccccc4)C3)cs2)CCN(C(=O)Cn2nc(C(F)F)cc2C(F)F)CC1 (centres unmarked) [Example I-50]
Log P[a] [1]: 3.89

CS(=O)(=O)Oc1cccc(Cl)c1C1CC(c2csc(C3(C(=O)OC4CCOC4)CCN(C(=O)Cn4nc(C(F)F)cc4C(F)F)CC3)n2)=NO1 (centres unmarked) [Example I-53]
Log P[a] [1]: 3.39

CC(C)=CCNC(=O)C1(C#N)CCN(C(=O)Nc2ccccc2)CC1 [IV-42]
Log P[a] [1]: 2.26

C#CCOc1ccccc1C1CC(c2csc(C3(C(=O)OC)CCN(C(=O)Cn4nc(C(F)F)cc4C)CC3)n2)=NO1 (centres unmarked) [Example I-65]
Log P[a] [1]: 3.33

CC(C)(C)OC(=O)C1(C#N)CCN(C(=O)Cc2ccccc2)CC1 [IV-23]
Log P[a] [1]: 2.96

CSCCOC(=O)C1(c2nc(C3=NOC(c4c(F)cccc4F)C3)cs2)CCN(C(=O)Cn2nc(C(F)F)cc2C(F)F)CC1 (centres unmarked) [Example I-49]
Log P[a] [1]: 3.87

C#CCOc1ccc(F)c(F)c1C1CC(c2csc(C3(C(=O)OC4CCOC4)CCN(C(=O)Cn4nc(C(F)F)cc4C(F)F)CC3)n2)=NO1 (centres unmarked) [Example I-59]
Log P[a] [1]: 3.55

C=CCOC(=O)C1(C(N)=S)CCN(C(=O)Cn2nc(C(F)F)cc2C(F)F)CC1 [II-3]
Log P[a] [1]: 2.42

COC(=O)C1(c2nc(C3=NOC(c4c(Cl)cccc4OS(C)(=O)=O)C3)cs2)CCN(C(=O)Cn2nc(C(F)F)cc2C)CC1 (centres unmarked) [Example I-60]
Log P[a] [1]: 3.19

N#CC1(C(=O)O)CCN(C(=O)Cn2nc(C(F)F)cc2C(F)F)CC1 [IV-12]
Log P[a] [1]: 1.44

N#CC1(C(=O)O)CCN(C(=O)Nc2ccccc2)CC1 [IV-21]
Log P[a] [1]: 1.16

C=CCOC(=O)C1(c2nc(C3=NOC(c4c(F)cccc4F)C3)cs2)CCN(C(=O)Cn2nc(C(F)F)cc2C(F)F)CC1 (centres unmarked) [Example I-43]
Log P[a] [1]: 3.83
